Data: US4092431A, “Pharmaceutical composition and method of the use thereof” (Chugai Seiyaku Kabushiki Kaisha, priority 1977, dated 1978)

Legend:
stress-induced ulcer = test: Inhibitory action on stress-induced ulcer formation; assay type: in vivo, Sprague-Dawley strain male rats; details: oral; for dose dependence of inhibiting action on ulcer formation: 30 mg/kg and above; for Ulcer Index (mean value ± standard deviation): Ulcer Index = a + b/10, control 6.1 ± 2.3; for Number of Ulcers/Stomach, 3 mm or larger: control 1.3; for Number of Ulcers/Stomach, up to 3 mm: control 45.6; for Percent Inhibition: ulcer index
Procedure: Sprague-Dawley strain male rats weighing 200-250 g were deprived of food for 24 hours, and then laid down on their backs on a screen and fixed by fastening their limbs with a strand. The fixed rats were submerged in water bath to the depth of ensiform process with their hind legs dipped first. Sixteen hours after the submerge, the rats were brought out from the bath and their stomachs were taken out. After light fixation with a 1% formalin aqueous solution, the stomach of each animal was cut open along their greater curvature and gastric mucosa was observed through a dissecting microscope. The ulcer was evaluated on an ulcer index calculated from the following equation: […]
wherein a is the number of big ulcers more than 3 mm in diameter and b is the number of small ulcers up to 3 mm in diameter.
A test compound was orally administered as a suspension in a 1% gum arabic aqueous solution, 10 minutes before exposure to stress.

pylorus ligature ulcer = test: Protective action on pylorus ligature ulcer formation; assay type: in vivo, Sprague-Dawley strain male rats; details: for Death Rate / Perforating Ulcers / Ulcer Index (mean value ± standard deviation) / Percent Inhibition: in the duodenum; for Ulcer Index (mean value ± standard deviation): scale 0 to 5, control 4.0 ± 1.3; for Percent Inhibition: ulcer index
Procedure: The pylorus of Sprague-Dawley strain male rats weighing 150-200 g that had abstained from food, but not water for 48 hours was ligatured under ether anethsia. Each rat was allowed to stand individually in a cage for 16 hours without food and water. At the end of this term, the rats were sacrificed by an overdose of diethyl ether. The stomach was taken out of each animal and the gastric mucosa was obserbed by the use of a dissecting microscope.
Ulcers observed in the gastric mucosa were evaluated on a scale of from 0 to 5 defined as follows.
0: No lesion was observed.
1: Hemorrhage and/or erosion were observed.
2: One to five small ulcers less than 3 mm in diameter were observed.
3: Six or more small ulcers and/or a large ulcer more than 3 mm in diameter were observed.
4: Two or more large ulcers were observed.
5: At least one perforating ulcer was observed.
A test compound was administered as an aqueous solution in an equivalent molar of hydrochloric acid in the duodenum immediately after the pylorus ligature.

acetic acid ulcer = test: Action on the healing of acetic acid ulcers; assay type: in vivo, Sprague-Dawley strain male rats; details: oral; for Percent healing Rate / Ulcer Index (mean number ± standard deviation), product of major and minor axis: once a day for 15 days; for Ulcer Index (mean number ± standard deviation), product of major and minor axis: control 12.5 ± 6.0
Procedure: Sprague-Dawley strain male rate (8 weeks old) were etherized and their abdominal parts were cut open. A 20% acetic acid aqueous solution (0.05 ml) was injected into subserosal layer in the glandular part of stomach of each rat and the incisions were sutured.
From the fourth day after the operation, each rat was orally administered with 1-(3'-dimethylaminopropoxy)-2,4-bis(3"-methylbenzamido)-benzene in a dose of 10 mg/kg or 40 mg/kg. body weight as an aqueous solution in an equivalent molar of hydrochloric acid once a day for 15 days. On the day after the last administration, the rats were sacrificed by an overdose of diethyl ether and the stomach of each of the rats was taken out. After light fixation of the stomach with a 1% formalin solution, it was cut open along the greater curvature and the gastric mucosa was observed through a dissecting microscope. The ulcer was evaluated as the product (mm^2) of the major axis and the minor axis of the ulcer.

Acute toxicity in mice = details: mouse, in vivo, po

| SMILES | dose dependence of inhibiting action on ulcer formation (stress-induced ulcer) | inhibition of the formation of ulcer (stress-induced ulcer; 30 mg/kg body weight) | Ulcer Index (mean value ± standard deviation) (stress-induced ulcer; 30 mg/kg) | Number of Ulcers/Stomach, 3 mm or larger (stress-induced ulcer; 30 mg/kg) | Number of Ulcers/Stomach, up to 3 mm (stress-induced ulcer; 30 mg/kg) | Percent Inhibition (stress-induced ulcer; 30 mg/kg) [%] | Ulcer Index (mean value ± standard deviation) (stress-induced ulcer; 45 mg/kg) | Number of Ulcers/Stomach, 3 mm or larger (stress-induced ulcer; 45 mg/kg) | Number of Ulcers/Stomach, up to 3 mm (stress-induced ulcer; 45 mg/kg) | Percent Inhibition (stress-induced ulcer; 45 mg/kg) [%] | Ulcer Index (mean value ± standard deviation) (stress-induced ulcer; 67 mg/kg) | Number of Ulcers/Stomach, 3 mm or larger (stress-induced ulcer; 67 mg/kg) | Ulcer Index (mean value ± standard deviation) (stress-induced ulcer; 100 mg/kg) | Number of Ulcers/Stomach, 3 mm or larger (stress-induced ulcer; 100 mg/kg) | Number of Ulcers/Stomach, up to 3 mm (stress-induced ulcer; 100 mg/kg) | Percent Inhibition (stress-induced ulcer; 100 mg/kg) [%] | Death Rate (pylorus ligature ulcer; 200 mg/kg) [%] | Perforating Ulcers (pylorus ligature ulcer; 200 mg/kg) [%] | Ulcer Index (mean value ± standard deviation) (pylorus ligature ulcer; 200 mg/kg) | Percent Inhibition (pylorus ligature ulcer; 200 mg/kg) [%] | also measured |
| --- | --- | --- | --- | --- | --- | --- | --- | --- | --- | --- | --- | --- | --- | --- | --- | --- | --- | --- | --- | --- | --- |
| Cc1ccccc1C(=O)Nc1ccc(OCCCN(C)C)c(NC(=O)c2ccccc2C)c1 [1-(3'-dimethylaminopropoxy)-2,4-bis(2"-methylbenzamido)-benzene] | inhibiting action increases as the dose level heightens | 50-60% | 2.8 ± 0.8 | 0.6 | 23.4 | 54 | 2.0 ± 0.6 | 0.2 | 16.8 | 67 | 1.0 ± 0.9 | 0.2 | 0.4 ± 0.5 | 0 | 3.8 | 93 | 0 | 0 | 0 | 100 | Number of Ulcers/Stomach, up to 3 mm (stress-induced ulcer; 67 mg/kg): 8.8; Percent Inhibition (stress-induced ulcer; 67 mg/kg): 84%; Death Rate (pylorus ligature ulcer; 50 mg/kg): 20%; Perforating Ulcers (pylorus ligature ulcer; 50 mg/kg): 20%; Ulcer Index (mean value ± standard deviation) (pylorus ligature ulcer; 50 mg/kg): 3.2 ± 1.3; Percent Inhibition (pylorus ligature ulcer; 50 mg/kg): 20%; inhibition of death of rats and formation of perforating ulcers (pylorus ligature ulcer; 100 mg/kg or 200 mg/kg): completely inhibited the death of rats and the formation of perforating ulcers; prevention of formation of gastric ulcers (pylorus ligature ulcer; 100 mg/kg or 200 mg/kg): prevented the formation of gastric ulcers on a statistically significant level; Death Rate (pylorus ligature ulcer; 100 mg/kg): 0%; Perforating Ulcers (pylorus ligature ulcer; 100 mg/kg): 0%; Ulcer Index (mean value ± standard deviation) (pylorus ligature ulcer; 100 mg/kg): 2.6 ± 0.5; Percent Inhibition (pylorus ligature ulcer; 100 mg/kg): 35% |
| Cc1cccc(C(=O)Nc2ccc(OCCCN(C)C)c(NC(=O)c3cccc(C)c3)c2)c1 [1-(3'-dimethylaminopropoxy)-2,4-bis(3"-methylbenzamido)-benzene] | inhibiting action increases as the dose level heightens | 50-60% | 2.6 ± 2.1 | 0.5 | 21.4 | 57 | 2.0 ± 1.7 | 1.0 | 8.7 | 67 | 1.5 ± 2.7 | 0.8 | 2.0 ± 2.1 | 0.8 | 10.6 | 67 | 0 | 0 | 1.0 ± 1.1 | 75 | Number of Ulcers/Stomach, up to 3 mm (stress-induced ulcer; 67 mg/kg): 7.3; Percent Inhibition (stress-induced ulcer; 67 mg/kg): 75%; ulcer index in comparison with control (acetic acid ulcer; 10 mg/kg and 40 mg/kg): on a statistically significant lower level in comparison with those of the control; Percent healing Rate (acetic acid ulcer; 10 mg/kg): 45%; Ulcer Index (mean number ± standard deviation), product of major and minor axis (acetic acid ulcer; 10 mg/kg): 6.9 ± 5.6 mm^2; Percent healing Rate (acetic acid ulcer; 40 mg/kg): 42%; Ulcer Index (mean number ± standard deviation), product of major and minor axis (acetic acid ulcer; 40 mg/kg): 7.2 ± 5.1 mm^2; Death Rate (pylorus ligature ulcer; 50 mg/kg): 33%; Perforating Ulcers (pylorus ligature ulcer; 50 mg/kg): 50%; Ulcer Index (mean value ± standard deviation) (pylorus ligature ulcer; 50 mg/kg): 4.0 ± 1.1; Percent Inhibition (pylorus ligature ulcer; 50 mg/kg): 0%; inhibition of death of rats and formation of perforating ulcers (pylorus ligature ulcer; 100 mg/kg or 200 mg/kg): completely inhibited the death of rats and the formation of perforating ulcers; prevention of formation of gastric ulcers (pylorus ligature ulcer; 100 mg/kg or 200 mg/kg): prevented the formation of gastric ulcers on a statistically significant level; Death Rate (pylorus ligature ulcer; 100 mg/kg): 0%; Perforating Ulcers (pylorus ligature ulcer; 100 mg/kg): 0%; Ulcer Index (mean value ± standard deviation) (pylorus ligature ulcer; 100 mg/kg): 2.0 ± 1.4; Percent Inhibition (pylorus ligature ulcer; 100 mg/kg): 50% |
| Cc1ccccc1C(=O)Nc1ccc(C(=O)NCCCN(C)C)c(NC(=O)c2ccccc2C)c1 [1-[N-(3'-dimethylaminopropyl)-carbamoyl]-2,4-bis(2"-methylbenzamido)-benzene] |  |  |  |  |  |  |  |  |  |  |  |  | 3.0 ± 1.0 | 0.8 | 23.4 | 51 | 0 | 0 | 1.4 ± 1.4 | 65 | LD50 (Acute toxicity in mice): > 11000 mg/kg; inhibition of the formation of ulcer (stress-induced ulcer; 100 mg/kg body weight): 50-60%; inhibition of death of rats and formation of perforating ulcers (pylorus ligature ulcer; 200 mg/kg): completely inhibited the death of rats and the formation of perforating ulcers; prevention of formation of gastric ulcers (pylorus ligature ulcer; 200 mg/kg): prevented the formation of gastric ulcers on a statistically significant level |
| Cc1cccc(C(=O)Nc2ccc(C(=O)NCCCN(C)C)c(NC(=O)c3cccc(C)c3)c2)c1 [1-[N-(3'-dimethylaminopropyl)-carbamoyl]-2,4-bis(3"-methylbenzamido)-benzene] |  |  |  |  |  |  |  |  |  |  |  |  | 2.4 ± 2.1 | 0.6 | 17.6 | 61 | 0 | 0 | 2.5 ± 1.4 | 38 | inhibition of the formation of ulcer (stress-induced ulcer; 100 mg/kg body weight): 50-60%; inhibition of death of rats and formation of perforating ulcers (pylorus ligature ulcer; 200 mg/kg): completely inhibited the death of rats and the formation of perforating ulcers; prevention of formation of gastric ulcers (pylorus ligature ulcer; 200 mg/kg): prevented the formation of gastric ulcers on a statistically significant level |
